Laboratory results as given in PubChem BioAssay (NCI).
“And” between values parts separate entries of the source, which are not always exact repeats. Identical values can stand only once.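 Five compound concentrations were applied to cells in 96-well plates for 48 hours; endpoints were derived by simple linear interpolation of the resulting dose-response curve. Abbreviation: GI50, concentration required for 50% inhibition of growth. TGI is the concentration that stops growth completely.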

Legend:
Experiment in all cases: DTP human tumour cell line panel, 48 h
LOX IMVI melanoma = test system: LOX IMVI melanoma
HOP-62 NSCLC = test system: HOP-62 NSCLC
COLO 205 colon = test system: COLO 205 colon
T-47D breast = test system: T-47D breast
SW-620 colon = test system: SW-620 colon
RXF 393 renal = test system: RXF 393 renal
SK-MEL-2 melanoma = test system: SK-MEL-2 melanoma
U251 CNS = test system: U251 CNS
SNB-19 CNS = test system: SNB-19 CNS
M14 melanoma = test system: M14 melanoma

| SMILES | GI50 (LOX IMVI melanoma) | TGI (LOX IMVI melanoma) | GI50 (HOP-62 NSCLC) | TGI (HOP-62 NSCLC) | GI50 (COLO 205 colon) | TGI (COLO 205 colon) | GI50 (T-47D breast) | TGI (T-47D breast) | GI50 (SW-620 colon) | TGI (SW-620 colon) | GI50 (RXF 393 renal) | TGI (RXF 393 renal) | GI50 (SK-MEL-2 melanoma) | TGI (SK-MEL-2 melanoma) | GI50 (U251 CNS) | TGI (U251 CNS) [µM] | GI50 (SNB-19 CNS) | TGI (SNB-19 CNS) [µM] | GI50 (M14 melanoma) | TGI (M14 melanoma) |
| --- | --- | --- | --- | --- | --- | --- | --- | --- | --- | --- | --- | --- | --- | --- | --- | --- | --- | --- | --- | --- |
| CC(C)NCCCCCNc1cc(O)cc2cccnc12 | > 100 µM | > 100 µM | > 100 µM | > 100 µM | 1.88 µM | > 100 µM | 4.56 µM | > 100 µM | > 100 µM | > 100 µM | > 100 µM | > 100 µM | > 100 µM | > 100 µM | > 100 µM | > 100 | > 100 µM | > 100 | > 100 µM | > 100 µM |
| COc1ccc(NC(=O)CC(=O)n2nc(-c3ccccc3)c(N=Nc3ccccc3C)c2-c2ccccc2)cc1 |  | > 100 µM |  | 33.8 µM |  | 99.8 µM |  | 57.7 µM |  | > 62.3 µM |  | 33.4 µM |  | 56.9 µM |  | 35.3 |  | > 69.7 |  | > 100 µM |
| CCNC(=O)c1ccc2c(c1)nc(-c1ccc(Cl)cc1)n2-c1cc(C(C)(C)C)[nH]n1 | 3.54 µM | 14.4 µM | 5.41 µM | 36.2 µM | 3.5 µM | 14.4 µM | 3.99 µM | > 100 µM |  |  | 1.81 µM | 5.55 µM | 2.81 µM | 8.15 µM | 3.28 µM | 12.2 | 3.97 µM | > 100 | 2.97 µM | 10.8 µM |
| NCC(=O)NC(CO)C(=O)O (centres undefined) |  | > 100 µM |  | > 100 µM |  | > 100 µM |  | > 100 µM |  | > 100 µM |  | > 100 µM |  | > 100 µM |  | > 100 |  | > 100 |  | > 100 µM |
| COc1cccc2cc(-c3nc(C4CCC(C(=O)O)CC4)n4ncnc(N)c34)[nH]c12 (centres undefined) | 0.368 µM and 0.825 µM | 4.85 µM and > 10 µM | 0.305 µM and 0.338 µM | 3.64 µM and 4.83 µM | 1.07 µM and 0.542 µM | 13.5 µM and > 8.26 µM | 0.045 µM and 0.0505 µM | 0.442 µM and 0.356 µM | 1.23 µM and 1.49 µM | > 100 µM | 0.186 µM and 0.299 µM | 0.954 µM and 3.27 µM | 0.108 µM and 0.347 µM | 0.633 µM and 2.23 µM | 0.666 µM and 1.26 µM | > 100 | 1.34 µM and 1.49 µM | > 100 | 0.219 µM and 0.36 µM | 3.76 µM and > 7.22 µM |
| O=C1C(Cl)=C(Nc2cccc(O)c2)C(=O)N1c1ccc(Cl)cc1Cl | 19.3 µM | 48.3 µM | 32.8 µM | > 100 µM | 28.2 µM | > 100 µM | 43.6 µM | > 100 µM | 17.3 µM | 38.3 µM | 17 µM | 67.3 µM | 35 µM | 72.5 µM | 19 µM | 66.7 | 29.9 µM | > 100 | 47.6 µM | > 100 µM |
| C=CCCC(O)c1ccc(CCCCCCCCCCC)o1 (centres undefined) | 31.8 µM | 47.2 µM | 17.3 µM | 32.2 µM | 17.9 µM | 35.3 µM | 13.8 µM | 30.5 µM | 17 µM | 32.2 µM | 18.5 µM | 36.5 µM | 17.6 µM | 37.1 µM | 17.5 µM | 31.5 | 18.8 µM | 35 | 17.2 µM | 32.4 µM |
| O=[N+]([O-])c1ccc(NN=C2c3ccccc3Cc3ccccc32)c([N+](=O)[O-])c1 |  | > 100 µM |  | > 100 µM |  | > 100 µM |  | > 100 µM |  | > 100 µM |  | > 100 µM |  | > 43.4 µM |  | > 100 |  | > 100 |  | > 100 µM |
| COc1cc(/C=N/Nc2ncnc3c2cnn3Cc2ccccc2)ccc1O | > 17.7 µM | > 25 µM | 5.24 µM | 11.8 µM | 10.6 µM | > 25 µM | 9.57 µM | > 25 µM | > 25 µM | > 25 µM | 4.7 µM | 19.2 µM | 16.7 µM | > 25 µM | 6.51 µM | > 25 | 9.22 µM | > 25 | > 25 µM | > 25 µM |
| CC(=O)Nc1ccc(S(=O)(=O)c2ccc(NC(C)=O)cc2)cc1 | > 100 µM | > 100 µM | > 100 µM | > 100 µM | > 100 µM | > 100 µM | > 100 µM | > 100 µM | > 100 µM | > 100 µM | > 100 µM | > 100 µM | > 100 µM | > 100 µM |  |  |  |  | > 100 µM | > 100 µM |
| COc1cc(C(=O)Nc2cc(O)c(C/C=C(\C)CCC=C(C)C)c(O)c2)cc2c1O[C@]1(C)CC[C@@H](O)C(C)(C)[C@H]1C2 | 0.0626 µM and 0.0809 µM | 2.7 µM and 1.92 µM | 0.0537 µM and 0.176 µM | 6.97 µM | 0.386 µM and 0.678 µM | 4.25 µM and 5.32 µM | 0.401 µM and 0.69 µM | 4.88 µM | 0.0899 µM and 0.159 µM | 1.84 µM and 15.6 µM | 0.00419 µM | 0.0809 µM and 0.17 µM | 0.0833 µM and 0.215 µM | 3.08 µM | 0.00961 µM and < 0.0175 µM | 6.15 | 3.28 µM and 1.9 µM | 26.4 | 0.0984 µM and 0.0812 µM | 4.76 µM and 1.91 µM |
| O=C1C(Cl)=C(Nc2ccccn2)C(=O)c2ccccc21 | 2.04 µM | 5.29 µM | 2.57 µM | 6.15 µM | 3.23 µM | 11.4 µM | 3.1 µM | 10.2 µM | 2.29 µM | 5.16 µM | 10.2 µM | 21.8 µM | 3.05 µM | 6.66 µM | 3.24 µM | 11 | 4.53 µM | 16.3 | 2.07 µM | 3.84 µM |
| CN1CCN(CCCOc2ccc3nc(Nc4ccc(C(F)(F)F)c(Cl)c4)ccc3c2)CC1 | 1.07 µM | 2.32 µM | 1.63 µM | 3.18 µM | 1.7 µM | 3.49 µM | 1.62 µM | 4.54 µM | 1.71 µM | 3.33 µM | 1.42 µM | 3.03 µM | 2.44 µM | 4.46 µM | 1.46 µM | 2.98 | 1.74 µM | 3.6 | 1.71 µM | 3.32 µM |
| Cc1ccc2nc(CC(=O)c3ccc4ccccc4c3)c(=O)[nH]c2c1 |  | > 100 µM |  | > 100 µM |  | > 100 µM |  | > 100 µM |  | > 100 µM |  | > 100 µM |  | > 100 µM |  | > 100 |  | > 100 |  | > 100 µM |
